Where two headings read alike, the source gives them in different places.
Experiments:
Plasmodium falciparum = test: in vitro asexual blood stage growth of Plasmodium falciparum; format: cell-based; conditions: for IC50: Plasmodium falciparum, P. falciparum in vitro
Experimental: Presented herein is experiment data representing tranexamic acid as an antimalarial druggable scaffold. The results shown below show the efficacy of tranexamic acid against both Plasmodium falciparum and P. berghei across the parasite lifecycle. The data herein illustrates the ability of tranexamic acid to act as an antimicrobial agent, and more particularly, in some embodiments, as an antimalarial drug. Experiments were conducted to test, in vitro, the ability of tranexamic acid to impair the asexual intraerythrocytic development of P. falciparum. All of the symptoms associated with malaria infection are caused by the asexual blood stages, which makes them a logical therapeutic target.
Up to six different concentrations of tranexamic acid plus a negative control (carrier with no drug) were tested in a highly synchronous culture. A two-fold serial dilution starting at 200 mM was prepared, replenishing the drug daily for four consecutive days (i.e. two complete intraerythrocytic cycles).
FIG. 1 illustrates in vitro asexual blood stage growth at day 1 after 1 dose of tranexamic acid (TXA). Values are the mean of three technical replicates, and error bars represent the standard deviation. FIG. 2 illustrates in vitro asexual blood stage growth at day 3 after 3 doses of tranexamic acid (TXA). Values are the mean of three technical replicates, and error bars represent the standard deviation. FIG. 3 illustrates in vitro IC50 of tranexamic acid after three daily doses. Values are the mean of three technical replicates, relative to the minimal effect (i. e. the parasitemia from the samples with no drug). Error bars represent the standard deviation. Morphological defective parasites could be observed at day 4 in the two lowest tested concentrations (i.e. 12.5 and 6.25 mM). Healthy segmented schizonts were selected from the sample mock-treated in the absence of tranexamic acid (0 mM).

[1] = test system: Plasmodium berghei ANKA mCherry; format: in vivo, mice (outbred CD1); conditions: mice
Experimental: In addition to in vitro experiments to test the ability of tranexamic acid to impair the asexual intraerythrocytic development of P. falciparum, experiments were conducted to test, in vivo, the ability of tranexamic acid to cure asynchronized blood stage infections of Plasmodium berghei ANKA mCherry in mice. P. berghei is a species in the genus Plasmodium subgenus Vinckeia and is a protozoan parasite that causes malaria in rodents. Due to its ability to infect rodents and relative ease of genetic engineering, P. berghei is a popular model organism for the study of human malaria, and was thus used in the present disclosure.
Recipient mice (n=5/group; 3 groups) received blood from a donor mouse containing asynchronous asexual blood stages of P. berguei. Parasitemia was monitored and when it reached at least 5% mice were treated intravenously (i.v.) with 20, 10, or 0 mg of tranexamic acid in a phosphate-buffered saline (PBS) carrier. Blood smears from tail snips were prepared every 24 hours, or until the humane endpoint criteria was reached, to monitor parasitemia.
FIG. 4 illustrates in vivo asexual blood stage growth of P. berghei after the injection of the PBS carrier. […]

Structure (SMILES): NC[C@H]1CC[C@H](C(=O)O)CC1 [tranexamic acid]
- clearance of infection (Plasmodium falciparum; 100 mM, after 48 hours, two doses): cleared the infection
- clearance of infection (Plasmodium falciparum; 200 mM, after 24 hours, single dose, FIG. 1): completely cleared the infection
- parasite morphology (Plasmodium falciparum; 12.5 and 6.25 mM, day 4, some parasites arrested at schizont-like morphology): morphological defects could be observed
- IC50 (Plasmodium falciparum; 72 h, after 3 daily doses, FIG. 3, read-out: IC50 at day 3): 11.4 mM
- IC50 (Plasmodium falciparum; drug replenished on a daily basis, read-out: in vitro IC50): 11.4 mM
- growth delay (Plasmodium falciparum; some of the tested concentrations, rings and early trophozoites on day 3 (72 hours after first dose), FIG. 2): a growth delay was observed
- equivalent in vitro concentration based on estimated volemia ([1]; 10 mg injection i.v.): approximately 37 mM
- equivalent in vitro concentration based on estimated volemia ([1]; 20 mg injection i.v.): ~75 mM

From US20230080241A1 (priority 2020, published 2023)
